Our source for the IC50 values is patent publication US20250382305A1 (PTC THERAPEUTICS, INC., priority 2022, published 2025).

Some results are limits rather than exact numbers.

The subject of assay [1] is Total ATXN3 (tATXN3) protein. As to the kind of experiment: Endogenous Total ATXN3 (tATXN3) Protein Assay (MSD immunoassay of cell lysates). The assay is classed as cell-based. The following applies: average IC50, total ATXN3 protein in cell lysate after 48 h with compound (Table 1). The method, boiled down:
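By electrochemiluminescent MSD sandwich immunoassay (mouse monoclonal capture, rabbit monoclonal and SULFO-TAG anti-rabbit detection), endogenous ATXN3 was quantified in lysates of cells treated 48 h at 37° C at 10,000 cells/well. Treatment used a 7-point 3.16-fold duplicate dilution series, with average IC50 grouped into star categories.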

The next assay has as its system ATXN3 pre-mRNA. As to the kind of experiment: RT-qPCR Assay to Quantify Exon 4 Skipping in ATXN3 pre-mRNA in Cells. The assay is classed as cell-based. The following applies: percent exon 4 skipping in ATXN3 pre-mRNA, RT-qPCR of cell lysates; average IC50. The method, boiled down: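 IC50 derives from a dose-response fit of percent exon 4 skipping, quantified by RT-qPCR on crude lysates. Compounds tested as 7-point 3.16-fold dilutions in duplicate; cells (10,000/well) were exposed for 24 h at 37 °C before lysis.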
Background: Quantitative PCR measures a nucleic acid by following its amplification.

What is called IC50 is the concentration that inhibits the measured activity by half. `Cn1c([C@@H]2CCOC[C@H]2N)c(Br)c2nc(Cl)cc(NCc3cccs3)c21` [Compound 384, 2-((3S,4R)-3-aminotetrahydro-2H-pyran-4-yl)-3-bromo-5-chloro-1-methyl-N-(thiophen-2-ylmethyl)-1H-pyrrolo[3,2-b]pyridin-7-amine]: the IC50 (in assay [1]; in the assay on ATXN3 pre-mRNA) was 30 to 300 nM each time.
Regarding `Cc1c([C@H]2CCCCC[C@H]2N)sc2c(NCc3cccs3)cc(Cl)nc12` [Compound 84, 2-((1S,2R)-2-aminocycloheptyl)-5-chloro-3-methyl-N-(thiophen-2-ylmethyl)thieno[3,2-b]pyridin-7-amine], the IC50 (in assay [1]; with ATXN3 pre-mRNA) was more than 1000 nM each time.
For the molecule `N[C@H]1CCCCC[C@@H]1c1sc2c(NCc3cccs3)cc(Cl)nc2c1Br` [Compound 75, 2-((1S,2S)-2-aminocycloheptyl)-3-bromo-5-chloro-N-(thiophen-2-ylmethyl)thieno[3,2-b]pyridin-7-amine], the IC50 (in assay [1]; in the assay with ATXN3 pre-mRNA) was 30 to 300 nM each time.
As for `N[C@@H]1CCCCCC[C@H]1c1sc2c(NCc3cccs3)cc(Cl)nc2c1I` [Compound 123, 2-((1R,2R)-2-aminocyclooctyl)-5-chloro-3-iodo-N-(thiophen-2-ylmethyl)thieno[3,2-b]pyridin-7-amine], the 50% inhibitory concentration (IC50) (in assay [1]; in the assay on ATXN3 pre-mRNA) was more than 1000 nM in each case.
On to `Cc1c([C@H]2CC=C(C(N)=O)C[C@@H]2N)sc2c(NCc3cccs3)cc(Cl)nc12` [Compound 274, (4S,5S)-5-amino-4-(5-chloro-3-methyl-7-((thiophen-2-ylmethyl)amino)thieno[3,2-b]pyridin-2-yl)cyclohex-1-ene-1-carboxamide], for which the half-inhibitory concentration (IC50) (in assay [1]; with ATXN3 pre-mRNA) was 30 to 300 nM each time.
With `N[C@@H]1CCCCC[C@H]1c1sc2c(NCc3cccs3)cc(Cl)nc2c1-c1ccccc1` [Compound 142, 2-((1R,2R)-2-aminocycloheptyl)-5-chloro-3-phenyl-N-(thiophen-2-ylmethyl)thieno[3,2-b]pyridin-7-amine], the IC50 (in assay [1]; in the assay with ATXN3 pre-mRNA) was more than 1000 nM in each case.
`N[C@@H]1CCCO[C@H]1c1c(I)c2nc(Cl)nc(NCc3ccco3)c2n1C(F)F` [Compound 422, 6-((2R,3R)-3-aminotetrahydro-2H-pyran-2-yl)-2-chloro-5-(difluoromethyl)-N-(furan-2-ylmethyl)-7-iodo-5H-pyrrolo[3,2-d]pyrimidin-4-amine]: the half-inhibitory concentration (IC50) (in assay [1]; with ATXN3 pre-mRNA) was 30 to 300 nM in each case.
As for `CCOC(=O)C1=CC[C@H](c2sc3c(NCc4cccs4)cc(Cl)nc3c2C)[C@@H](N)C1` [Compound 277, ethyl (4S,5S)-5-amino-4-(5-chloro-3-methyl-7-((thiophen-2-ylmethyl)amino)thieno[3,2-b]pyridin-2-yl)cyclohex-1-ene-1-carboxylate], the half-maximal inhibitory concentration (IC50) in assay [1] was 30 to 300 nM; in the assay with ATXN3 pre-mRNA, not above 30 nM.
As to “2-((1S,6S)-6-aminocyclohex-3-en-1-yl)-3-bromo-5-chloro-N-(thiophen-2-ylmethyl)thieno[3,2-b]pyridin-7-amine and 2-((1R,6R)-6-aminocyclohex-3-en-1-yl)-3-bromo-5-chloro-N-(thiophen-2-ylmethyl)thieno[3,2-b]pyridin-7-amine [Compound 256]”, the IC50 in assay [1] is 30 to 300 nM; in the assay on ATXN3 pre-mRNA, not above 30 nM.
In the same order, the values of `Cc1c([C@H]2CC=CC[C@@H]2N)sc2c(NCc3cccs3)cc(Cl)nc12` [Compound 222, 2-((1S,6S)-6-aminocyclohex-3-en-1-yl)-5-chloro-3-methyl-N-(thiophen-2-ylmethyl)thieno[3,2-b]pyridin-7-amine] are not above 30 nM and not above 30 nM.
In the case of `N[C@H]1CCOC[C@@H]1c1sc2c(NCc3ccccc3)cc(Cl)nc2c1Cl` [Compound 218, 2-((3R,4S)-4-aminotetrahydro-2H-pyran-3-yl)-N-benzyl-3,5-dichlorothieno[3,2-b]pyridin-7-amine], the concentration for half-maximal inhibition (IC50) (in assay [1]; in the assay with ATXN3 pre-mRNA) was not above 30 nM throughout.
Turning to `N[C@@H]1CCNCC[C@H]1c1sc2c(NCc3cccs3)cc(Cl)nc2c1Br.N[C@H]1CCNCC[C@@H]1c1sc2c(NCc3cccs3)cc(Cl)nc2c1Br` (mixture of isomers) [Compound 147, 2-((4R,5R)-5-aminoazepan-4-yl)-3-bromo-5-chloro-N-(thiophen-2-ylmethyl)thieno[3,2-b]pyridin-7-amine and 2-((4S,5S)-5-aminoazepan-4-yl)-3-bromo-5-chloro-N-(thiophen-2-ylmethyl)thieno[3,2-b]pyridin-7-amine], the half-inhibitory concentration (IC50) (in assay [1]; in the assay with ATXN3 pre-mRNA) was more than 1000 nM throughout.
As for `N[C@@H]1CCCCCC[C@@H]1c1sc2c(NCc3cccs3)cc(Cl)nc2c1Br` [Compound 101, 2-((1S,2R)-2-aminocyclooctyl)-3-bromo-5-chloro-N-(thiophen-2-ylmethyl)thieno[3,2-b]pyridin-7-amine], the IC50 (in assay [1]; in the assay with ATXN3 pre-mRNA) was more than 1000 nM throughout.
`Cc1c([C@H]2CCCC[C@@H]2N)sc2c(NCc3ccccc3)cc(Cl)nc12` [Compound 280, 2-((1S,2S)-2-aminocyclohexyl)-N-benzyl-5-chloro-3-methylthieno[3,2-b]pyridin-7-amine]: the concentration for half-maximal inhibition (IC50) (in assay [1]; in the assay with ATXN3 pre-mRNA) was 30 to 300 nM in each case.
`N[C@@H]1CC=CC[C@H]1c1sc2c(NCc3ccncc3F)nc(Cl)nc2c1Cl` [Compound 439, 6-((1R,6R)-6-aminocyclohex-3-en-1-yl)-2,7-dichloro-N-((3-fluoropyridin-4-yl)methyl)thieno[3,2-d]pyrimidin-4-amine]: the concentration for half-maximal inhibition (IC50) (in assay [1]; with ATXN3 pre-mRNA) was 300 to 1000 nM in each case.
`N[C@@H]1CCCO[C@H]1c1c(Cl)c2nc(Cl)nc(NCc3cccs3)c2n1C(F)F` [Compound 423, 6-((2R,3R)-3-aminotetrahydro-2H-pyran-2-yl)-2,7-dichloro-5-(difluoromethyl)-N-(thiophen-2-ylmethyl)-5H-pyrrolo[3,2-d]pyrimidin-4-amine]: the results for the IC50 (in assay [1]; with ATXN3 pre-mRNA) were 30 to 300 nM and not above 30 nM, respectively.
For `N[C@@H]1CCC[C@H]1c1sc2c(NCc3ccccc3)cc(Cl)nc2c1Br` [Compound 161, 2-((1R,2R)-2-aminocyclopentyl)-N-benzyl-3-bromo-5-chlorothieno[3,2-b]pyridin-7-amine] the same measures were more than 1000 nM and more than 1000 nM.
Take `Cc1c([C@@H]2CCCC[C@@H]2N)sc2c(NCc3cccs3)cc(Cl)nc12` [Compound 50, 2-((1R,2S)-2-aminocyclohexyl)-5-chloro-3-methyl-N-(thiophen-2-ylmethyl)thieno[3,2-b]pyridin-7-amine]: the results for the IC50 (in assay [1]; in the assay with ATXN3 pre-mRNA) were 300 to 1000 nM and 30 to 300 nM, respectively.
In the same order, the values of `CCc1c([C@H]2CCCC[C@@H]2N)sc2c(NCc3cccs3)cc(Cl)nc12` (single isomer, unassigned) [Compound 40, 2-((1S,2S)-2-aminocyclohexyl)-5-chloro-3-ethyl-N-(thiophen-2-ylmethyl)thieno[3,2-b]pyridin-7-amine or 2-((1R,2R)-2-aminocyclohexyl)-5-chloro-3-ethyl-N-(thiophen-2-ylmethyl)thieno[3,2-b]pyridin-7-amine] are 30 to 300 nM and 30 to 300 nM.
In the same order, the values of “6-((3R,4S)-3-aminotetrahydro-2H-pyran-4-yl)-2-chloro-N-(furan-2-ylmethyl)-7-vinylthieno[3,2-d]pyrimidin-4-amine and 6-((3S,4R)-3-aminotetrahydro-2H-pyran-4-yl)-2-chloro-N-(furan-2-ylmethyl)-7-vinylthieno[3,2-d]pyrimidin-4-amine [Compound 390]” are 300 to 1000 nM and 30 to 300 nM.
For “5-(5-chloro-2-((1R,6R)-6-(methylamino)cyclohex-3-en-1-yl)-7-((thiophen-2-ylmethyl)amino)thieno[3,2-b]pyridin-3-yl)pent-4-yn-1-ol and 5-(5-chloro-2-((1S,6S)-6-(methylamino)cyclohex-3-en-1-yl)-7-((thiophen-2-ylmethyl)amino)thieno[3,2-b]pyridin-3-yl)pent-4-yn-1-ol [Compound 288]” the same measures were 30 to 300 nM and 30 to 300 nM.
Regarding `N[C@@H]1CCCO[C@H]1c1sc2c(NCc3ccccc3F)cc(Cl)nc2c1Br.N[C@H]1CCCO[C@@H]1c1sc2c(NCc3ccccc3F)cc(Cl)nc2c1Br` (mixture of isomers) [Compound 29, 2-((2R,3R)-3-aminotetrahydro-2H-pyran-2-yl)-3-bromo-5-chloro-N-(2-fluorobenzyl)thieno[3,2-b]pyridin-7-amine and 2-((2S,3S)-3-aminotetrahydro-2H-pyran-2-yl)-3-bromo-5-chloro-N-(2-fluorobenzyl)thieno[3,2-b]pyridin-7-amine], the IC50 (in assay [1]; with ATXN3 pre-mRNA) was 30 to 300 nM in each case.
Take `N[C@H]1CCCCCC[C@H]1c1sc2c(NCc3cccs3)cc(Cl)nc2c1Br` [Compound 102, 2-((1R,2S)-2-aminocyclooctyl)-3-bromo-5-chloro-N-(thiophen-2-ylmethyl)thieno[3,2-b]pyridin-7-amine]: the IC50 (in assay [1]; with ATXN3 pre-mRNA) was more than 1000 nM each time.
Turning to `[2H]C1=C([2H])C([2H])([2H])[C@@H](c2sc3c(NCc4ccco4)cc(Cl)nc3c2Cl)[C@H](N)C1([2H])[2H]` [Compound 369, 2-((1R,6R)-6-aminocyclohex-3-en-1-yl-2,2,3,4,5,5-d6)-3,5-dichloro-N-(furan-2-ylmethyl)thieno[3,2-b]pyridin-7-amine], the IC50 (in assay [1]; in the assay on ATXN3 pre-mRNA) was 30 to 300 nM throughout.
Regarding `N[C@@H]1CCCCC[C@H]1c1sc2c(NCc3cccs3)cc(Cl)nc2c1Br` [Compound 74, 2-((1R,2R)-2-aminocycloheptyl)-3-bromo-5-chloro-N-(thiophen-2-ylmethyl)thieno[3,2-b]pyridin-7-amine], the concentration for half-maximal inhibition (IC50) (in assay [1]; in the assay with ATXN3 pre-mRNA) was more than 1000 nM in each case.
